Results taken from US20230085307A1, “PYRIDAZINONE COMPOUND AND HERBICIDE” (NISSAN CHEMICAL CORPORATION, priority 2019, published 2023).

Columns and labels:
wild oat [1] = experiment: Test Example 4: herbicidal effect by soil treatment (Table 19, symbol I); assay type: in vivo, wild oat (Avena fatua); conditions: amount of applied herbicide 320 g/ha
Outline: (§1)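 Pre-emergence style soil spray: seeds under ~1.5 cm sterilized diluvial soil received a uniform coat of emulsion diluted to the predetermined herbicide amount. Greenhouse 25–30° C; readout at week three on previously defined criteria.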

Japanese bulrush [2] = experiment: Test Example 2: herbicidal activity, application during weed generation under submerged conditions (Table 17, symbol B); assay type: in vivo, Japanese bulrush (Schoenoplectus juncoides); conditions: AAH 320 g/ha; application during weed generation, submerged conditions
Outline: (§2)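 In this pot test, flooded alluvial soil (water depth 4 cm) holds all three species sown as a mixture. Once seedlings have one to two leaves, the compound's emulsion, thinned with water to the intended dose, is poured on the water; grading follows after three weeks on the earlier criteria.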

persian speedwell = experiment: Test Example 4: herbicidal effect by soil treatment (Table 19, symbol R); assay type: in vivo, Persian speedwell (Veronica persica); conditions: amount of applied herbicide 320 g/ha
Outline: as §1

green foxtail = experiment: Test Example 4: herbicidal effect by soil treatment (Table 19, symbol G); assay type: in vivo, green foxtail (Setaria viridis); conditions: amount of applied herbicide 320 g/ha
Outline: as §1

Italian ryegrass [3] = experiment: Test Example 4: herbicidal effect by soil treatment (Table 19, symbol K); assay type: in vivo, Italian ryegrass (Lolium multiflorum); conditions: amount of applied herbicide 320 g/ha
Outline: as §1

chickweed = experiment: Test Example 4: herbicidal effect by soil treatment (Table 19, symbol P); assay type: in vivo, common chickweed (Stellaria media); conditions: amount of applied herbicide 320 g/ha
Outline: as §1

late watergrass [4] = experiment: Test Example 1: herbicidal activity, application before weed generation under submerged conditions (Table 16, symbol A); assay type: in vivo, late watergrass (Echinochloa oryzicola); conditions: amount of applied herbicide 320 g/ha
Outline: (§3)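 Alluvial soil was flooded to 4 cm depth, weed seeds were sown mixed and 2.5-leaf rice seedlings were transplanted. On sowing day, the compound's emulsion, diluted in water to a set dose, was applied to the water surface. Plants grew at 25–30 °C and were scored 0–5 after three weeks.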

blackgrass [5] = experiment: Test Example 5: herbicidal effect by foliage application, plastic box (Table 20, symbol J); assay type: in vivo, blackgrass (Alopecurus myosuroides); conditions: for J: blackgrass, herbicidal effect grade: foliage application, three weeks after application
Outline: (§4)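 Plants were sown into sterilized diluvial soil under about 1.5 cm cover and kept in a greenhouse at 25° C. to 30° C. Fourteen days on, foliage received an even spray of the diluted emulsion. Herbicidal or crop effect was judged three weeks afterwards.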

late watergrass [6] = experiment: Test Example 2: herbicidal activity, application during weed generation under submerged conditions (Table 17, symbol A); assay type: in vivo, late watergrass (Echinochloa oryzicola); conditions: AAH 320 g/ha; application during weed generation, submerged conditions
Outline: as §2

redroot pigweed = experiment: Test Example 5: herbicidal effect by foliage application, plastic box (Table 20, symbol N); assay type: in vivo, redroot pigweed (Amaranthus retroflexus); conditions: for N: redroot pigweed, herbicidal effect grade: foliage application, three weeks after application
Outline: as §4

Japanese bulrush [7] = experiment: Test Example 1: herbicidal activity, application before weed generation under submerged conditions (Table 16, symbol B); assay type: in vivo, Japanese bulrush (Schoenoplectus juncoides); conditions: amount of applied herbicide 320 g/ha
Outline: as §3

barnyard grass [8] = experiment: Test Example 4: herbicidal effect by soil treatment (Table 19, symbol H); assay type: in vivo, barnyard grass (Echinochloa crus-galli); conditions: amount of applied herbicide 320 g/ha
Outline: as §1

barnyard grass [9] = experiment: Test Example 3: herbicidal effect by foliage application, Wagner pot (Table 18, symbol H); assay type: in vivo, barnyard grass (Echinochloa crus-galli); conditions: for herbicidal effect on barnyard grass (H): 320 g/ha
Outline: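 Plants were sown in alluvial soil held under 0.1–0.5 cm standing water and grown 14 days in a greenhouse at 25–30 °C. An emulsifiable formulation, water-diluted to the set dose, was then sprayed onto the foliage, and effects were scored three weeks later using previously defined criteria.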

Italian ryegrass [10] = experiment: Test Example 5: herbicidal effect by foliage application, plastic box (Table 20, symbol K); assay type: in vivo, Italian ryegrass (Lolium multiflorum); conditions: for K: Italian ryegrass, herbicidal effect grade: foliage application, three weeks after application
Outline: as §4

velvetleaf = experiment: Test Example 5: herbicidal effect by foliage application, plastic box (Table 20, symbol M); assay type: in vivo, velvetleaf (Abutilon theophrasti); conditions: for M: velvetleaf, herbicidal effect grade: foliage application, three weeks after application
Outline: as §4

wild oat [11] = experiment: Test Example 5: herbicidal effect by foliage application, plastic box (Table 20, symbol I); assay type: in vivo, wild oat (Avena fatua); conditions: for I: wild oat, herbicidal effect grade: foliage application, three weeks after application
Outline: as §4

blackgrass [12] = experiment: Test Example 4: herbicidal effect by soil treatment (Table 19, symbol J); assay type: in vivo, blackgrass (Alopecurus myosuroides); conditions: amount of applied herbicide 320 g/ha
Outline: as §1

[13] = amount of applied herbicide 320 g/ha, foliage application after 14-day growth, evaluated three weeks after application
[14] = 320 g/ha, foliage application after 14-day growth, evaluated three weeks after application

| Structure (SMILES) | I: wild oat, herbicidal effect grade (wild oat [1]) | herbicidal effect rating, B: Japanese bulrush (Japanese bulrush [2]) | R: persian speedwell, herbicidal effect grade (persian speedwell) | G: green foxtail, herbicidal effect grade (green foxtail) | K: Italian ryegrass, herbicidal effect grade (Italian ryegrass [3]) | P: chickweed, herbicidal effect grade (chickweed) | Herbicidal effect, A: late watergrass (late watergrass [4]) | herbicidal effect rating, A: late watergrass (late watergrass [6]) | Herbicidal effect, B: Japanese bulrush (Japanese bulrush [7]) | H: barnyard grass, herbicidal effect grade (barnyard grass [8]) | herbicidal effect on barnyard grass (H) (barnyard grass [9]) | J: blackgrass, herbicidal effect grade (blackgrass [12]) | J: blackgrass, herbicidal effect grade (blackgrass [5]; 320 g/ha) | N: redroot pigweed, herbicidal effect grade (redroot pigweed; 320 g/ha) | K: Italian ryegrass, herbicidal effect grade (Italian ryegrass [10]; 320 g/ha) | M: velvetleaf, herbicidal effect grade (velvetleaf; 320 g/ha) | I: wild oat, herbicidal effect grade (wild oat [11]; 320 g/ha) | also measured |
| --- | --- | --- | --- | --- | --- | --- | --- | --- | --- | --- | --- | --- | --- | --- | --- | --- | --- | --- |
| CCCC(=O)Oc1c(C)nn(C)c(=O)c1-c1c(-c2ccc(C#N)cc2)sc2cc(F)c(F)cc12 [5-026] | 0 (Herbicidal rate of 5% or less (almost no effect)) | 0 (Herbicidal rate of 5% or less (almost no effect)) | 4 (Herbicidal rate of 70% or more and less than 90%) | 0 (Herbicidal rate of 5% or less (almost no effect)) | 0 (Herbicidal rate of 5% or less (almost no effect)) | 0 (Herbicidal rate of 5% or less (almost no effect)) | 3 (Herbicidal rate of 40% or more and less than 70%) | 2 (Herbicidal rate of 20% or more and less than 40%) | 0 (Herbicidal rate of 5% or less (almost no effect)) | 0 (Herbicidal rate of 5% or less (almost no effect)) | 3 (Herbicidal rate of 40% or more and less than 70%) | 0 (Herbicidal rate of 5% or less (almost no effect)) |  |  |  |  |  | Herbicidal effect by foliage application, J: blackgrass (blackgrass [5]; [13]): 0 (Herbicidal rate of 5% or less (almost no effect)); Herbicidal effect by foliage application, N: redroot pigweed (redroot pigweed; [13]): 2 (Herbicidal rate of 20% or more and less than 40%); Herbicidal effect by foliage application, K: Italian ryegrass (Italian ryegrass [10]; [13]): 0 (Herbicidal rate of 5% or less (almost no effect)); Herbicidal effect by foliage application, M: velvetleaf (velvetleaf; [13]): 3 (Herbicidal rate of 40% or more and less than 70%); Herbicidal effect by foliage application, I: wild oat (wild oat [11]; [13]): 1 (Herbicidal rate of 5% or more and less than 20%) |
| CCOc1ccccc1-c1sc2cc(F)ccc2c1-c1c(O)c(C)nn(C)c1=O [3-006] |  | 4 (Herbicidal rate of 70% or more and less than 90%) |  |  |  |  | 5 (Herbicidal rate of 90% or more (almost completely withered)) | 3 (Herbicidal rate of 40% or more and less than 70%) | 5 (Herbicidal rate of 90% or more (almost completely withered)) |  |  |  | 5 (Herbicidal rate of 90% or more (almost completely withered)) | 5 (Herbicidal rate of 90% or more (almost completely withered)) | 5 (Herbicidal rate of 90% or more (almost completely withered)) | 5 (Herbicidal rate of 90% or more (almost completely withered)) | 5 (Herbicidal rate of 90% or more (almost completely withered)) | herbicidal effect, I: wild oat (wild oat [1]): 4 (Herbicidal rate of 70% or more and less than 90%); herbicidal effect, R: persian speedwell (persian speedwell): 5 (Herbicidal rate of 90% or more (almost completely withered)); herbicidal effect, G: green foxtail (green foxtail): 5 (Herbicidal rate of 90% or more (almost completely withered)); herbicidal effect, K: Italian ryegrass (Italian ryegrass [3]): 2 (Herbicidal rate of 20% or more and less than 40%); herbicidal effect, P: chickweed (chickweed): 5 (Herbicidal rate of 90% or more (almost completely withered)); herbicidal effect, H: barnyard grass (barnyard grass [8]): 5 (Herbicidal rate of 90% or more (almost completely withered)); herbicidal effect on H: barnyard grass (barnyard grass [9]; amount of applied herbicide 320 g/ha): 5 (Herbicidal rate of 90% or more (almost completely withered)); herbicidal effect, J: blackgrass (blackgrass [12]): 5 (Herbicidal rate of 90% or more (almost completely withered)) |
| COc1ccccc1-c1sc2cc(OC(C)C)ccc2c1-c1c(O)c(C)nn(C)c1=O [3-101] | 1 (Herbicidal rate of 5% or more and less than 20%) | 3 (Herbicidal rate of 40% or more and less than 70%) | 4 (Herbicidal rate of 70% or more and less than 90%) | 5 (Herbicidal rate of 90% or more (almost completely withered)) | 5 (Herbicidal rate of 90% or more (almost completely withered)) | 4 (Herbicidal rate of 70% or more and less than 90%) | 5 (Herbicidal rate of 90% or more (almost completely withered)) | 3 (Herbicidal rate of 40% or more and less than 70%) | 5 (Herbicidal rate of 90% or more (almost completely withered)) | 5 (Herbicidal rate of 90% or more (almost completely withered)) | 5 (Herbicidal rate of 90% or more (almost completely withered)) | 4 (Herbicidal rate of 70% or more and less than 90%) | 5 (Herbicidal rate of 90% or more (almost completely withered)) | 5 (Herbicidal rate of 90% or more (almost completely withered)) | 5 (Herbicidal rate of 90% or more (almost completely withered)) | 5 (Herbicidal rate of 90% or more (almost completely withered)) | 4 (Herbicidal rate of 70% or more and less than 90%) |  |
| CCCOc1ccc(-c2sc3c(F)cccc3c2-c2c(OC(=O)CCC)c(C)nn(C)c2=O)cc1 [4-010] |  | 0 (Herbicidal rate of 5% or less (almost no effect)) |  |  |  |  | 3 (Herbicidal rate of 40% or more and less than 70%) | 4 (Herbicidal rate of 70% or more and less than 90%) | 0 (Herbicidal rate of 5% or less (almost no effect)) |  | 5 (Herbicidal rate of 90% or more (almost completely withered)) |  |  |  |  |  |  | Herbicidal effect by soil treatment, I: wild oat (wild oat [1]): 0 (Herbicidal rate of 5% or less (almost no effect)); Herbicidal effect by soil treatment, R: persian speedwell (persian speedwell): 3 (Herbicidal rate of 40% or more and less than 70%); Herbicidal effect by soil treatment, G: green foxtail (green foxtail): 0 (Herbicidal rate of 5% or less (almost no effect)); Herbicidal effect by soil treatment, K: Italian ryegrass (Italian ryegrass [3]): 2 (Herbicidal rate of 20% or more and less than 40%); Herbicidal effect by soil treatment, P: chickweed (chickweed): 3 (Herbicidal rate of 40% or more and less than 70%); herbicidal effect on J: blackgrass (evaluation grade 0-5) (blackgrass [5]; [14]): 4 (Herbicidal rate of 70% or more and less than 90%); herbicidal effect on N: redroot pigweed (evaluation grade 0-5) (redroot pigweed; [14]): 5 (Herbicidal rate of 90% or more (almost completely withered)); Herbicidal effect by soil treatment, H: barnyard grass (barnyard grass [8]): 0 (Herbicidal rate of 5% or less (almost no effect)); herbicidal effect on K: Italian ryegrass (evaluation grade 0-5) (Italian ryegrass [10]; [14]): 4 (Herbicidal rate of 70% or more and less than 90%); herbicidal effect on M: velvetleaf (evaluation grade 0-5) (velvetleaf; [14]): 3 (Herbicidal rate of 40% or more and less than 70%); herbicidal effect on I: wild oat (evaluation grade 0-5) (wild oat [11]; [14]): 0 (Herbicidal rate of 5% or less (almost no effect)); Herbicidal effect by soil treatment, J: blackgrass (blackgrass [12]): 0 (Herbicidal rate of 5% or less (almost no effect)) |
| COc1ccccc1-c1sc2cc(OCC(C)C)ccc2c1-c1c(O)c(C)nn(C)c1=O [3-107] | 0 (Herbicidal rate of 5% or less (almost no effect)) | 5 (Herbicidal rate of 90% or more (almost completely withered)) | 4 (Herbicidal rate of 70% or more and less than 90%) | 4 (Herbicidal rate of 70% or more and less than 90%) | 5 (Herbicidal rate of 90% or more (almost completely withered)) | 1 (Herbicidal rate of 5% or more and less than 20%) | 4 (Herbicidal rate of 70% or more and less than 90%) | 3 (Herbicidal rate of 40% or more and less than 70%) | 5 (Herbicidal rate of 90% or more (almost completely withered)) | 3 (Herbicidal rate of 40% or more and less than 70%) | 4 (Herbicidal rate of 70% or more and less than 90%) | 0 (Herbicidal rate of 5% or less (almost no effect)) | 4 (Herbicidal rate of 70% or more and less than 90%) | 5 (Herbicidal rate of 90% or more (almost completely withered)) | 5 (Herbicidal rate of 90% or more (almost completely withered)) | 5 (Herbicidal rate of 90% or more (almost completely withered)) | 0 (Herbicidal rate of 5% or less (almost no effect)) |  |
